{
  "source": "PubChem BioAssay AID1259409",
  "about": "(Chemical Carcinogenesis Research Information System (CCRIS), 2018)",
  "origin": "cited, not measured here",
  "system": "rodent chemically induced tumor inhibition, incidence and multiplicity",
  "assay": "CCRIS tumor inhibitor studies",
  "settings": "Dose [Inhibitor]: 0, Route [Inhibitor]: DERMAL, Species: MOUSE, Strain/Sex: SENCAR/FEMALE, Target Tissue: Type of Lesion: SKIN: PAPILLOMA",
  "data": [
    {"compound": "C=Cc1ccc2ccc3cccc4ccc1c2c34", "values": [
      {"measurement": "tumour outcome (control, treated, inhibition, significance)", "setting": "Carcinogen: 7,12-DIMETHYLBENZ[A]ANTHRACENE, 57-97-6, 44 NMOL IN 0.2 ML ACETONE APPLIED TO BACK ONCE 5 MIN PRIOR TO CARCINOGEN DOSE (STUDY DURATION: 26 WK), Dose [Carcinogen]: 10 NMOL IN 0.2 ML ACETONE APPLIED TO BACK ONCE.", "value": "100%, 100%, 0%, not significant"},
      {"measurement": "tumour outcome (control, treated, inhibition, significance)", "setting": "Carcinogen: 7,12-DIMETHYLBENZ[A]ANTHRACENE, 57-97-6, 440 NMOL IN 0.2 ML ACETONE APPLIED TO BACK ONCE 5 MIN PRIOR TO CARCINOGEN DOSE (STUDY DURATION: 26 WK), Dose [Carcinogen]: 10 NMOL IN 0.2 ML ACETONE APPLIED TO BACK ONCE.", "value": "100%, 92%, 8%, not calculated"},
      {"measurement": "tumour outcome (control, treated, inhibition, significance)", "setting": "Carcinogen: 7,12-DIMETHYLBENZ[A]ANTHRACENE, 57-97-6, 4400 NMOL IN 0.2 ML ACETONE APPLIED TO BACK ONCE 5 MIN PRIOR TO CARCINOGEN DOSE (STUDY DURATION: 20 WK), Dose [Carcinogen]: 10 NMOL IN 0.2 ML ACETONE APPLIED TO BACK ONCE.", "value": "100%, 68%, 32%, not calculated"},
      {"measurement": "tumour outcome (control, treated, inhibition, significance)", "setting": "Carcinogen: 7,12-DIMETHYLBENZ[A]ANTHRACENE, 57-97-6, 4400 NMOL IN 0.2 ML ACETONE APPLIED TO BACK ONCE 5 MIN PRIOR TO CARCINOGEN DOSE (STUDY DURATION: 26 WK), Dose [Carcinogen]: 10 NMOL IN 0.2 ML ACETONE APPLIED TO BACK ONCE.", "value": "100%, 79%, 21%, not calculated"},
      {"measurement": "tumour outcome (control, treated, inhibition, significance)", "setting": "Carcinogen: 7,12-DIMETHYLBENZ[A]ANTHRACENE, 57-97-6, 44000 NMOL IN 0.2 ML ACETONE APPLIED TO BACK ONCE 5 MIN PRIOR TO CARCINOGEN DOSE (STUDY DURATION: 20 WK), Dose [Carcinogen]: 10 NMOL IN 0.2 ML ACETONE APPLIED TO BACK ONCE.", "value": "100%, 24%, 76%, not calculated"},
      {"measurement": "tumour outcome (control, treated, inhibition, significance)", "setting": "Carcinogen: BENZO[A]PYRENE, 50-32-8, 2200 NMOL IN 0.2 ML ACETONE APPLIED TO BACK ONCE 5 MIN PRIOR TO CARCINOGEN DOSE (STUDY DURATION: 26 WK), Dose [Carcinogen]: 200 NMOL IN 0.2 ML ACETONE APPLIED TO BACK ONCE.", "value": "100%, 95%, 5%, not calculated"},
      {"measurement": "tumour outcome (control, treated, inhibition, significance)", "setting": "Carcinogen: BENZO[A]PYRENE, 50-32-8, 4400 NMOL IN 0.2 ML ACETONE APPLIED TO BACK ONCE 5 MIN PRIOR TO CARCINOGEN DOSE (STUDY DURATION: 20 WK), Dose [Carcinogen]: 200 NMOL IN 0.2 ML ACETONE APPLIED TO BACK ONCE., Promoter: PHORBOLMYRISTATE ACETATE, 16561-29-8", "value": "75%, 64%, 15%, not calculated"},
      {"measurement": "tumour outcome (control, treated, inhibition, significance)", "setting": "Carcinogen: BENZO[A]PYRENE, 50-32-8, 22000 NMOL IN 0.2 ML ACETONE APPLIED TO BACK ONCE 5 MIN PRIOR TO CARCINOGEN DOSE (STUDY DURATION: 26 WK), Dose [Carcinogen]: 200 NMOL IN 0.2 ML ACETONE APPLIED TO BACK ONCE.", "value": "100%, 59%, 41%, not calculated"},
      {"measurement": "tumour outcome (control, treated, inhibition, significance)", "setting": "Carcinogen: BENZO[A]PYRENE, 50-32-8, 44000 NMOL IN 0.2 ML ACETONE APPLIED TO BACK ONCE 5 MIN PRIOR TO CARCINOGEN DOSE (STUDY DURATION: 20 WK), Dose [Carcinogen]: 200 NMOL IN 0.2 ML ACETONE APPLIED TO BACK ONCE", "value": "75%, 59%, 21%, not calculated"},
      {"measurement": "tumour outcome (control, treated, inhibition, significance)", "setting": "Carcinogen: BENZO[A]PYRENE, 50-32-8, 44000 NMOL IN 0.2 ML ACETONE APPLIED TO BACK ONCE 5 MIN PRIOR TO CARCINOGEN DOSE (STUDY DURATION: 26 WK), Dose [Carcinogen]: 200 NMOL IN 0.2 ML ACETONE APPLIED TO BACK ONCE.", "value": "100%, 38%, 62%, not calculated"},
      {"measurement": "tumour outcome (control, treated, inhibition, significance)", "setting": "Carcinogen: N-METHYL-N'-NITRO-N-NITROSOGUANIDINE, 70-25-7, 22000 NMOL IN 0.2 ML ACETONE APPLIED TO BACK ONCE 5 MIN PRIOR TO CARCINOGEN DOSE (STUDY DURATION: 20 WK), Dose [Carcinogen]: 2500 NMOL IN 0.2 ML ACETONE APPLIED TO BACK ONCE.", "value": "78%, 79%, -1%, not calculated"}
    ]}
  ]
}
